What was measured:
[1] = target: JAK1 (recombinant purified GST-tagged catalytic domain) (Homo sapiens (Human), UniProt P23458); experiment: Jak Biochemical HTRF Assay (JAK1); settings: [ATP] 31.8 μM
In short: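 HTRF format, biotinylated peptide substrate; ATP-initiated reaction 120 min RT; EDTA quench + streptavidin-Dylight 650/Eu-anti-pY20 detection, 60 min RT; signal = 665/615 ratio ×10,000; normalized % inhibition, 4-parameter fit → IC50.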

[2] = target: JAK2 (recombinant purified GST-tagged catalytic domain) (Homo sapiens (Human), UniProt O60674); experiment: Jak Biochemical HTRF Assay (JAK2); settings: [ATP] 8.5 μM
Description: Jak Biochemical HTRF Assay Protocol
The ability of compounds to inhibit the activity of JAK1, JAK2, JAK3, and Tyk2 was measured using a recombinant purified GST-tagged catalytic domain for each enzyme (Invitrogen JAK1 #M4290, JAK2 #M4290, JAK3 #M4290, Tyk2 #M4290) in an HTRF format biochemical assay. […] The basic assay protocol is as follows: First, 250 nL of diluted compounds in DMSO were dispensed into the wells of a dry 384-well Black plate (Greiner #781076) using a Labcyte Echo 555 acoustic dispenser. Subsequent reagent additions employed an Agilent Bravo. […] After equilibration, 2 μL of 10×ATP in 1× assay buffer was added to initiate the kinase reaction and the plates were shaken and then incubated at room temperature for 120 minutes. […] Plates were shaken and centrifuged and then incubated 60 minutes at room temperature and then read on a Perkin Elmer Envision (λex=337 nm, λem=665 and 615 nm, TRF delay time=20 μs). HTRF signal=10,000*665 nm reading/615 nm reading. After normalization to untreated controls, the percent inhibition of the HTRF signal at each compound concentration was calculated. The plot of percent inhibition versus the log of compound concentration was fit with a 4-parameter dose response equation to calculate IC50 values.
Final reaction conditions were:
Examples of the instant invention were evaluated in JAK1 and JAK2 in vitro binding assays as described above.

JAK2 (recombinant purified GST-tagged catalytic domain), sequence (O60674 849-1124): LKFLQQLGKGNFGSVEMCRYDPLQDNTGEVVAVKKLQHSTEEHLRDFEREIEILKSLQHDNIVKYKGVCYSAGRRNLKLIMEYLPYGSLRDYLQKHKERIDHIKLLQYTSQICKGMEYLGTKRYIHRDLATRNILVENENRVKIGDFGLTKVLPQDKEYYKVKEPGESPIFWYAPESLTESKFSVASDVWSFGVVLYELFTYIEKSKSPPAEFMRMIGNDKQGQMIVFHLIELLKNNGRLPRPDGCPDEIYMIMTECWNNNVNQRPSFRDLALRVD
JAK1 (recombinant purified GST-tagged catalytic domain), sequence (P23458 875-1153): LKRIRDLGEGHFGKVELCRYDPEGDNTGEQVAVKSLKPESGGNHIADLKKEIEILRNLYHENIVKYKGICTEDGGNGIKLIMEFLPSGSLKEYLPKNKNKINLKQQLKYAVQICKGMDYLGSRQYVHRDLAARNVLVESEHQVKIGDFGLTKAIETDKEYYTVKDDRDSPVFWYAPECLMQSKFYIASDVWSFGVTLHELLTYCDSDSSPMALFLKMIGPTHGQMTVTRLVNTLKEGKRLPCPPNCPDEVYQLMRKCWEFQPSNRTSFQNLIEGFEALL

| Compound | IC50 [1] [nM] | IC50 [2] [nM] |
| --- | --- | --- |
| CC(C)(C)OC(=O)[C@H]1CC[C@@](CC#N)(n2nc(Nc3ccc([C@@H](N)C(F)(F)F)cc3)c3c(=O)[nH]ccc32)CO1 (single isomer, unassigned) [Example 5-50, (2R,5S)-tert-butyl 5-(3-((4-((R or S)-1-amino-2,2,2-trifluoroethyl)phenyl)amino)-4-oxo-4,5-dihydro-1H-pyrazolo[4,3-c]pyridin-1-yl)-5-(cyanomethyl) tetrahydro-2H-pyran-2-carboxylate] | 11.8 | 34.5 |
| CC(C)(C)OC(=O)[C@@H]1CC[C@@](CC#N)(n2nc(Nc3ccc([C@@H](N)C(F)(F)F)cc3)c3c(=O)[nH]ccc32)CO1 (single isomer, unassigned) [Example 5-51, (2S,5S)-tert-butyl 5-(3-((4-((R or S)-1-amino-2,2,2-trifluoroethyl)phenyl)amino)-4-oxo-4,5-dihydro-1H-pyrazolo [4,3-c]pyridin-1-yl)-5-(cyanomethyl)tetrahydro-2H-pyran-2-carboxylate] | 0.18 | 0.49 |
| CC(C)(C)OC(=O)[C@H]1CC[C@@](CC#N)(n2nc(Nc3ccc([C@H](N)C(F)(F)F)cc3)c3c(=O)[nH]ccc32)CO1 (single isomer, unassigned) [Example 5-52, (2R,5S)-tert-butyl 5-(3-((4-((S or R)-1-amino-2,2,2-trifluoroethyl)phenyl)amino)-4-oxo-4,5-dihydro-1H-pyrazolo[4,3-c]pyridin-1-yl)-5-(cyanomethyl) tetrahydro-2H-pyran-2-carboxylate] | 11.7 | 30.3 |
| CC(C)(C)OC(=O)[C@@H]1CC[C@@](CC#N)(n2nc(Nc3ccc([C@H](N)C(F)(F)F)cc3)c3c(=O)[nH]ccc32)CO1 (single isomer, unassigned) [Example 5-53, (2S,5S)-tert-butyl 5-(3-((4-((S or R)-1-amino-2,2,2-trifluoroethyl)phenyl)amino)-4-oxo-4,5-dihydro-1H-pyrazolo[4,3-c]pyridin-1-yl)-5-(cyanomethyl) tetrahydro-2H-pyran-2-carboxylate] | 0.19 | 0.57 |
| CC(O)(c1ccc(Nc2nn([C@@]3(CC#N)CCCC[C@H]3F)c3cc[nH]c(=O)c23)cc1)C(F)(F)F (single isomer, unassigned) [Example 5-85, {(1R,2R)-2-fluoro-1-[4-oxo-3-({4-[(1S or 1R)-2,2,2-trifluoro-1-hydroxy-1-methylethyl]phenyl}amino)-4,5-dihydro-1H-pyrazolo[4,3-c]pyridin-1-yl]cyclohexyl}acetonitrile] | 0.07 | 0.17 |
| CC(O)(c1ccc(Nc2nn([C@@]3(CC#N)CCCC[C@H]3F)c3cc[nH]c(=O)c23)cc1)C(F)(F)F (single isomer, unassigned) [Example 5-86, {(1R,2R)-2-fluoro-1-[4-oxo-3-({4-[(1R or 1S)-2,2,2-trifluoro-1-hydroxy-1-methylethyl]phenyl}amino)-4,5-dihydro-1H-pyrazolo[4,3-c]pyridin-1-yl]cyclohexyl}acetonitrile] | 0.07 | 0.11 |
| N#CCC1(n2nc(Nc3ccc(C(N)C(F)(F)F)cc3)c3c(=O)[nH]ccc32)CCCC1 (single isomer, unassigned) [Example 5-88, (R or S)-2-(1-(3-((4-(1-amino-2,2,2-trifluoroethyl)phenyl)amino)-4-oxo-4,5-dihydro-1H-pyrazolo[4,3-c]pyridin-1-yl)cyclopentyl)acetonitrile] | 0.46 | 1.56 |
| N#CCC1(n2nc(Nc3ccc(C(N)C(F)(F)F)cc3)c3c(=O)[nH]ccc32)CCCC1 (single isomer, unassigned) [Example 5-89, (R or S)-2-(1-(3-((4-(1-amino-2,2,2-trifluoroethyl)phenyl)amino)-4-oxo-4,5-dihydro-1H-pyrazolo[4,3-c]pyridin-1-yl)cyclopentyl)acetonitrile] | 0.5 | 1.74 |
| CC1CCN1S(=O)(=O)c1ccc(Nc2nn([C@]3(CC#N)CCCOC3)c3cc[nH]c(=O)c23)cc1 (single isomer, unassigned) [Example 5-108, [(3S)-3-{3-[(4-{[(2R or 2S)-2-methylazetidin-1-yl]sulfonyl}phenyl)amino]-4-oxo-4,5-dihydro-1H-pyrazolo[4,3-c]pyridin-1-yl}tetrahydro-2H-pyran-3-yl]acetonitrile] | 0.12 | 0.23 |
| CC1CCN1S(=O)(=O)c1ccc(Nc2nn([C@]3(CC#N)CCCOC3)c3cc[nH]c(=O)c23)cc1 (single isomer, unassigned) [Example 5-109, [(3S)-3-{3-[(4-{[(2S or 2R)-2-methylazetidin-1-yl]sulfonyl}phenyl)amino]-4-oxo-4,5-dihydro-1H-pyrazolo[4,3-c]pyridin-1-yl}tetrahydro-2H-pyran-3-yl]acetonitrile] | 0.25 | 0.29 |
| CC(O)(c1ccc(Nc2nn([C@]3(CC#N)CCCOC3)c3cc[nH]c(=O)c23)cc1)C(F)(F)F (single isomer, unassigned) [Example 5-110, {(3S)-3-[4-oxo-3-({4-[(1S or 1R)-2,2,2-trifluoro-1-hydroxy-1-methylethyl]phenyl}amino)-4,5-dihydro-1H-pyrazolo[4,3-c]pyridin-1-yl]tetrahydro-2H-pyran-3-yl}acetonitrile] | 0.16 | 0.59 |
| CC(O)(c1ccc(Nc2nn([C@]3(CC#N)CCCOC3)c3cc[nH]c(=O)c23)cc1)C(F)(F)F (single isomer, unassigned) [Example 5-111, {(3S)-3-[4-oxo-3-({4-[(1R or 1S)-2,2,2-trifluoro-1-hydroxy-1-methylethyl]phenyl}amino)-4,5-dihydro-1H-pyrazolo[4,3-c]pyridin-1-yl]tetrahydro-2H-pyran-3-yl}acetonitrile] | 0.09 | 0.35 |
| CCOC(=O)C(C)(C)C(O)(c1ccc(Nc2nn([C@]3(CC#N)CCCOC3)c3cc[nH]c(=O)c23)cc1)C(F)(F)F (single isomer, unassigned) [Example 5-112, (S or R)-ethyl 3-(4-((1-((3S)-3-(cyanomethyl)tetrahydro-2H-pyran-3-yl)-4-oxo-4,5-dihydro-1H-pyrazolo[4,3-c]pyridin-3-yl)amino)phenyl)-4,4,4-trifluoro-3-hydroxy-2,2-dimethylbutanoate] | 1.07 | 2.53 |
| CCOC(=O)C(C)(C)C(O)(c1ccc(Nc2nn([C@]3(CC#N)CCCOC3)c3cc[nH]c(=O)c23)cc1)C(F)(F)F (single isomer, unassigned) [Example 5-113, (S or R)-ethyl 3-(4-((1-((3S)-3-(cyanomethyl)tetrahydro-2H-pyran-3-yl)-4-oxo-4,5-dihydro-1H-pyrazolo[4,3-c]pyridin-3-yl)amino)phenyl)-4,4,4-trifluoro-3-hydroxy-2,2-dimethylbutanoate] | 0.28 | 0.34 |
| Cc1cc(Nc2nn([C@]3(CC#N)CCCOC3)c3cc[nH]c(=O)c23)ccc1C(=O)N1CCC(O)(C(F)(F)F)C1 (single isomer, unassigned) [Example 5-114, 2-((S)-3-(3-((4-((S or R)-3-hydroxy-3-(trifluoromethyl)pyrrolidine-1-carbonyl)-3-methylphenyl)amino)-4-oxo-4,5-dihydro-1H-pyrazolo[4,3-c]pyridin-1-yl)tetrahydro-2H-pyran-3-yl)acetonitrile] | 0.33 | 1.31 |
| COC(=O)N1CCC(CC#N)(n2nc(Nc3ccc(C(C)(O)C(F)(F)F)cc3)c3c(=O)[nH]ccc32)CC1 (single isomer, unassigned) [Example 5-141, (R or S)-methyl 4-(cyanomethyl)-4-(4-oxo-3-((4-(1,1,1-trifluoro-2-hydroxypropan-2-yl)phenyl)amino)-4,5-dihydro-1H-pyrazolo[4,3-c]pyridin-1-yl)piperidine-1-carboxylate] | 0.18 | 0.43 |
| COC(=O)N1CCC(CC#N)(n2nc(Nc3ccc(C(C)(O)C(F)(F)F)cc3)c3c(=O)[nH]ccc32)CC1 (single isomer, unassigned) [Example 5-142, (R or S)-methyl 4-(cyanomethyl)-4-(4-oxo-3-((4-(1,1,1-trifluoro-2-hydroxypropan-2-yl)phenyl)amino)-4,5-dihydro-1H-pyrazolo[4,3-c]pyridin-1-yl)piperidine-1-carboxylate] | 0.13 | 0.33 |
| COC(=O)N1CCC(CC#N)(n2nc(Nc3ccc4c(c3)CCC4(O)C(F)(F)F)c3c(=O)[nH]ccc32)CC1 (single isomer, unassigned) [Example 5-143, (R or S)-methyl 4-(cyanomethyl)-4-(3-((1-hydroxy-1-(trifluoromethyl)-2,3-dihydro-1H-inden-5-yl)amino)-4-oxo-4,5-dihydro-1H-pyrazolo[4,3-c]pyridin-1-yl)piperidin-1-carboxylate] | 0.18 | 0.66 |

— US9957264B2 (Merck Sharp & Dohme Corp., priority 2013, dated 2018)
